Assay results: patent publication US10392389B2, “Heterocyclic compounds for the inhibition of PASK” (BioEnergenix, LLC, priority 2012, dated 2019)

Tests used:
PASK = target: T1, PASK (UniProt #Q96RG2; human recombinant N-terminal GST tagged construct, residues 879-1323) (Homo sapiens, UniProt Q96RG2); assay: PASK ATP Radiochemical Assay; type: biochemical; settings: 33P-ATP, Myelin Basic Protein substrate, read-out: IC50 Kinase Domain
T1 construct: N-terminal GST tagged construct, residues 879-1323; GST (N); host or cells: insect cells
Outline: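 Insect-cell GST-PASK (residues 879-1323, 5 nM final) phosphorylating 20 μM myelin basic protein with ^33P-ATP (0.01 μCi/μl final). Buffer 20 mM HEPES pH 7.5, 10 mM MgCl2, 1% DMSO. Reaction ran 120 min at room temperature; P81 filter binding and scintillation counting.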

PASK (Invitrogen) = target: T2, PASK (Invitrogen) (Homo sapiens, UniProt Q96RG2); assay: PAS Kinase FRET Assay; type: biochemical; settings: PAS kinase TR-FRET assay (665 nm/615 nm); read-out: IC50 Kinase Domain
T2 construct: IC50 Kinase Domain; purchased Invitrogen
Outline: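 PASK phosphorylates a ULight-peptide with ATP in 50 mM HEPES, 10 mM MgCl2, 1 mM EGTA, 0.01% Tween-20, 2 mM DTT for 2 h at 25° C in the dark. Compounds are added as 4× serial dilutions (top 12×10^−5 M at 4×). After stopping, an Eu anti-phospho-substrate antibody is added for 1 h and TR-FRET is read at 665/615 nm.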

[1] = target: T3, CK2a2 (NP_001887; human full-length protein, GST tagged) (Homo sapiens, UniProt P19784); assay: Biochemical Assay for CK2 Activity; settings: 33P-ATP radiochemical assay, CK2 sub [RRRDDDSDDD]
T3 construct: human full-length protein, GST tagged; GST; host or cells: insect cells
Outline: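 Radiometric filter-binding assay: GST-tagged full-length CK2a2 (1.2 nM) with 20 μM RRRDDDSDDD peptide in HEPES pH 7.5, MgCl2, EGTA, DTT, 1% DMSO; reaction started with ^33P-ATP and run 120 min at room temperature. Phosphorylated peptide captured on P81 paper, washed, and counted by scintillation.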

[2] = target: T4, PIM1 (NP_002639; human full-length protein, 6×His tagged) (Homo sapiens, UniProt P11309); assay: Biochemical Assay for PIM1 Activity; settings: 33P-ATP radiochemical assay, S6K/Rsk2 peptide 2 substrate
T4 construct: human full-length protein, 6×His tagged; 6xHis; host or cells: insect cells
Outline: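 His-tagged full-length human PIM1 from insect cells (1.0 nM final) was reacted with S6K/Rsk2 peptide 2 (20 μM) and ³³P-ATP in Hepes pH 7.5 buffer with 1% DMSO for 120 min at room temperature. Phosphorylated peptide was captured on P81 paper and counted by scintillation.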

[3] = In vivo pharmacokinetics in the Sprague Dawley rat; settings: formulation as in Table 5
Method: Pharmacokinetics of a PASK Inhibitor
The in vivo pharmacokinetics of Examples 12, 17, 43, and 51 were evaluated in the Sprague Dawley rat. Blood samples were collected at 0.083, 0.25, 0.5, 1, 2, 4, 6, 8, and 24 hours and the samples were analyzed for test compounds content using LC/MS/MS. The data was submitted to pharmacokinetic analysis using WinNonLin software and the observed and calculated pharmacokinetic parameters are shown in Table 5 for each compound.

T3 sequence (P19784 whole entry): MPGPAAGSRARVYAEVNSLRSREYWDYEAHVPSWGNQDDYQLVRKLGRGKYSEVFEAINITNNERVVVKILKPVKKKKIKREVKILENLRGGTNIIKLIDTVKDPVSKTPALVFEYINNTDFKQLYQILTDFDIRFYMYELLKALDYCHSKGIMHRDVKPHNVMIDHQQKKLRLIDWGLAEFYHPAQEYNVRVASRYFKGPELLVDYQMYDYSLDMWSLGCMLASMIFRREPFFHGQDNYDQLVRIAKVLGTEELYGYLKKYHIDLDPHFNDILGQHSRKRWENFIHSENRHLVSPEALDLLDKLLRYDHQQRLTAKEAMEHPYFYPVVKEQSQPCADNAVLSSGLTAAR
T2 sequence (Q96RG2 999-1251 limits assumed): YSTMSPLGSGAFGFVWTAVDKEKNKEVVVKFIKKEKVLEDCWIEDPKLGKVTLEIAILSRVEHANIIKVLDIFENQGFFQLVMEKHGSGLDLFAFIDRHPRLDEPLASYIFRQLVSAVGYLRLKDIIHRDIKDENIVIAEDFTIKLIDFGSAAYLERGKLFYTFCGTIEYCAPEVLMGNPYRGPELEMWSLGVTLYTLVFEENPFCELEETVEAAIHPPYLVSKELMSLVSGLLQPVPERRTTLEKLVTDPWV
T1 sequence (Q96RG2 879-1323, stated change not applied): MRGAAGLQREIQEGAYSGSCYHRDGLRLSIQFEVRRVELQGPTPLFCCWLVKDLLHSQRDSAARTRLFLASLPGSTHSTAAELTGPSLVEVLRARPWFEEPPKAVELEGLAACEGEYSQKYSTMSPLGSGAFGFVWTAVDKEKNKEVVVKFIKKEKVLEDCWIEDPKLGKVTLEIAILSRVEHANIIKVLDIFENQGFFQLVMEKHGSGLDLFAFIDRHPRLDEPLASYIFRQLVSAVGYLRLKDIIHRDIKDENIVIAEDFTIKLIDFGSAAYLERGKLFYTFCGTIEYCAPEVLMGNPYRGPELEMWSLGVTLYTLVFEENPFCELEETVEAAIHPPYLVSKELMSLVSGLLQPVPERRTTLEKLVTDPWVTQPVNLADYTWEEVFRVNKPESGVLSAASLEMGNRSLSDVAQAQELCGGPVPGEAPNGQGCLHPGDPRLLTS
T4 sequence (P11309 whole entry): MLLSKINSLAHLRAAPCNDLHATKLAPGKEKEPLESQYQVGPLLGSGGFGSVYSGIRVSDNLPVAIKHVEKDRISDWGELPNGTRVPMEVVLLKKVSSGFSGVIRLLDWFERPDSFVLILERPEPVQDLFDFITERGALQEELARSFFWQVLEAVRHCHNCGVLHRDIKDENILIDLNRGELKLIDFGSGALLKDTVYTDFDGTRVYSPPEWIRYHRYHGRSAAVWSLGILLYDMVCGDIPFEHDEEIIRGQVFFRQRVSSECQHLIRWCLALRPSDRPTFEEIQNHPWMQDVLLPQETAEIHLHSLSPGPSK

- IC50 (PASK): ≤ 10 µM
- IC50 (PASK (Invitrogen)): ≤ 10 µM
- IC50 [1]: ≤ 10 µM
- IC50 [2]: ≤ 10 µM
- Cl (clearance) ([3]; IV, 3 mg/kg): 6.19 mL/min/kg
- Vss (volume of distribution) ([3]; IV, 3 mg/kg): 0.61 L/kg
- t1/2 (half-life) ([3]; IV, 3 mg/kg): 8.3 h
- F (oral bioavailability) ([3]; PO, 10 mg/kg): 42%
- Tmax (Time to maximum blood concentration after an oral dose) ([3]; PO, 10 mg/kg): 4 h
- t1/2 (half-life) ([3]; PO, 10 mg/kg): 2.12 h
SMILES: COc1cc(-c2cc(=O)n3ncc(-c4ncc(C)o4)c3[nH]2)ccc1Cl [Example 17, 5-(4-chloro-3-methoxyphenyl)-3-(5-methyl-1,3-oxazol-2-yl)-4H,7H-pyrazolo[1,5-a]pyrimidin-7-one]
